Assay results taken from US12509457B2, “Bicyclic nitrogen containing heterocycles as inhibitors of salt-induced kinase SIK2” (priority 2019, dated 2025).
Where two headings read alike, the source gives them in different places.

Experiments:
Format in all cases: biochemical
SIK2 = SIK2 (Homo sapiens, UniProt Q9H0K1); assay: SIK2 kinase assay, IMAP fluorescence polarization; settings: 50 or 100 μM ATP; average; read-out: SIK2-AVERAGE Ki
SIK1 = SIK1 (Homo sapiens, UniProt P57059); assay: SIK1 kinase assay, IMAP fluorescence polarization; settings: 50 or 100 μM ATP; average; read-out: SIK1-AVERAGE Ki
SIK3 = SIK3 (Homo sapiens, UniProt Q9Y2K2); assay: SIK3 kinase assay, IMAP fluorescence polarization; settings: 50 or 100 μM ATP; average; read-out: SIK3-AVERAGE Ki
Abl = Abl (Homo sapiens, UniProt P00519); assay: Abl kinase assay, IMAP fluorescence polarization; settings: 50 or 100 μM ATP; average; read-out: Abl-AVERAGE Ki
Src = Src (Homo sapiens, UniProt P12931); assay: Src kinase assay, IMAP fluorescence polarization; settings: 50 or 100 μM ATP; average; read-out: Src-AVERAGE Ki
EPHA2 = EPHA2 (Homo sapiens, UniProt P29317); assay: EPHA2 kinase assay, IMAP fluorescence polarization
Sequence of EPHA2 (P29317 24-976): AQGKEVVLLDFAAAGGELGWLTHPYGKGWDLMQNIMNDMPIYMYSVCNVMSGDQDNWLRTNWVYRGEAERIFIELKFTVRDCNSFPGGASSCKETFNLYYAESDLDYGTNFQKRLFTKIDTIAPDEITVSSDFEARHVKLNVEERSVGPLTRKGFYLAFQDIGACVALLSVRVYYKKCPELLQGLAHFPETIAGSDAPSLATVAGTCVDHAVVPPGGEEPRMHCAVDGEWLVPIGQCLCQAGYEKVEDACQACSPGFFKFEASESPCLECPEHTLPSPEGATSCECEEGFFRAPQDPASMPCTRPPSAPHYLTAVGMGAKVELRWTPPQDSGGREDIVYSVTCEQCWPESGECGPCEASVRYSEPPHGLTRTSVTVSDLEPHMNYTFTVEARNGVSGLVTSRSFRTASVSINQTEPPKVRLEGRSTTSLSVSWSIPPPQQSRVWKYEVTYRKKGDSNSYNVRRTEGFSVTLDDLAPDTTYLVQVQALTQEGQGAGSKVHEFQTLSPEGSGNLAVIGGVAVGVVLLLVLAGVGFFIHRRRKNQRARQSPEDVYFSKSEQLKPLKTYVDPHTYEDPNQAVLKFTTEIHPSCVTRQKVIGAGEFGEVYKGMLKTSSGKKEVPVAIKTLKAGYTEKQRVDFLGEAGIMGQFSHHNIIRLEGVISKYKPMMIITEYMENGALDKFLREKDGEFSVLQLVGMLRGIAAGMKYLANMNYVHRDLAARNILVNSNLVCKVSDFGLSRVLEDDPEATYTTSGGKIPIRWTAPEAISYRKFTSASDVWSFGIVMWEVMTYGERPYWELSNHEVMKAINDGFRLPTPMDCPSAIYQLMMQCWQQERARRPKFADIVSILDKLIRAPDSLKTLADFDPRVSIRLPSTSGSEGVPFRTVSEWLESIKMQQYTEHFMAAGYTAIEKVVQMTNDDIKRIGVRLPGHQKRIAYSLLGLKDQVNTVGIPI

Sequence of Src (P12931 whole entry): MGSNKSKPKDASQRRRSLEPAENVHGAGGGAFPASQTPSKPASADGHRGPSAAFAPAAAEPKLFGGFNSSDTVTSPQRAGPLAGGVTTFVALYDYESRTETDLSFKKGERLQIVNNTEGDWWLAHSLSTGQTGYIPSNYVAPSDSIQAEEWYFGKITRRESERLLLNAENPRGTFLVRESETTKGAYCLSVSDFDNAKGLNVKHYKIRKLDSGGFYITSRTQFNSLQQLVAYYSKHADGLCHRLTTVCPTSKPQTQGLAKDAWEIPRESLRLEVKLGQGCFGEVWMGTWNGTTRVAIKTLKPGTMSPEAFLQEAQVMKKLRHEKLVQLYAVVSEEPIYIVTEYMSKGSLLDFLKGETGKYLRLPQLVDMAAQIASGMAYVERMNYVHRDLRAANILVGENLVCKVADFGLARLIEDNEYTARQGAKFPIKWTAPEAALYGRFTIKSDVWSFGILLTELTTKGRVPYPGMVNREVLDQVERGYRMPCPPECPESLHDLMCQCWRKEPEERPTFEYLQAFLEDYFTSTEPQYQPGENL
Sequence of SIK3 (Q9Y2K2 whole entry): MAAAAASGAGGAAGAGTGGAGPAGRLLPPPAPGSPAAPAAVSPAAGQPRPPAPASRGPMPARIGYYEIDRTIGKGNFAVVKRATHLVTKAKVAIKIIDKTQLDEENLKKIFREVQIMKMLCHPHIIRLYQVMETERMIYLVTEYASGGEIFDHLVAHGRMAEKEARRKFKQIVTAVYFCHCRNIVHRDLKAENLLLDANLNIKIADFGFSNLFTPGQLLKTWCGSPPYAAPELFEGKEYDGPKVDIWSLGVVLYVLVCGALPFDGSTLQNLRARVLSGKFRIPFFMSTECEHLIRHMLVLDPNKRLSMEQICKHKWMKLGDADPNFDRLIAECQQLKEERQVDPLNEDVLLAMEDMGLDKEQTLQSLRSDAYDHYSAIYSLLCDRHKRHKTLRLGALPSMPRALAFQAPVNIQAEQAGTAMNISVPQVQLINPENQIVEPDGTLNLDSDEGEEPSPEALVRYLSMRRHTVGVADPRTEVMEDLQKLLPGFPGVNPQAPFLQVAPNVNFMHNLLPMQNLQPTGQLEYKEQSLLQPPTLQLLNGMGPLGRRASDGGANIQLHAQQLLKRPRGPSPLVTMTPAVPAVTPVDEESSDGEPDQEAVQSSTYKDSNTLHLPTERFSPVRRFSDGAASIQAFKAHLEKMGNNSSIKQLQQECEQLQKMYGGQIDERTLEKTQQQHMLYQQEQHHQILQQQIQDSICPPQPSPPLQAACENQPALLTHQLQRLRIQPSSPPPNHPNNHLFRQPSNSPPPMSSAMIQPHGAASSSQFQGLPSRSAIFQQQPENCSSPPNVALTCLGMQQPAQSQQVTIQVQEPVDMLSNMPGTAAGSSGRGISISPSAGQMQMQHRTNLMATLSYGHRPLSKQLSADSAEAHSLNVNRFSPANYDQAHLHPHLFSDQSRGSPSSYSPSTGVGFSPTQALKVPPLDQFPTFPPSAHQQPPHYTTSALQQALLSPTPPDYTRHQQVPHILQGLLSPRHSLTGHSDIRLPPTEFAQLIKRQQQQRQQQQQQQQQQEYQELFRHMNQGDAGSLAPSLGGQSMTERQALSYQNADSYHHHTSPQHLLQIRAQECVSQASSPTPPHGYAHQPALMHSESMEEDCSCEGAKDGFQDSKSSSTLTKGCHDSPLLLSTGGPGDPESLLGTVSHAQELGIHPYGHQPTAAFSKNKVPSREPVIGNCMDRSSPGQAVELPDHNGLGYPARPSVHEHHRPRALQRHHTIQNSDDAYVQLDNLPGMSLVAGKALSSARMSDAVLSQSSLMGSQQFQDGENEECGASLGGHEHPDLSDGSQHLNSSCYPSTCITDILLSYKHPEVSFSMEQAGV
Sequence of SIK2 (Q9H0K1 whole entry): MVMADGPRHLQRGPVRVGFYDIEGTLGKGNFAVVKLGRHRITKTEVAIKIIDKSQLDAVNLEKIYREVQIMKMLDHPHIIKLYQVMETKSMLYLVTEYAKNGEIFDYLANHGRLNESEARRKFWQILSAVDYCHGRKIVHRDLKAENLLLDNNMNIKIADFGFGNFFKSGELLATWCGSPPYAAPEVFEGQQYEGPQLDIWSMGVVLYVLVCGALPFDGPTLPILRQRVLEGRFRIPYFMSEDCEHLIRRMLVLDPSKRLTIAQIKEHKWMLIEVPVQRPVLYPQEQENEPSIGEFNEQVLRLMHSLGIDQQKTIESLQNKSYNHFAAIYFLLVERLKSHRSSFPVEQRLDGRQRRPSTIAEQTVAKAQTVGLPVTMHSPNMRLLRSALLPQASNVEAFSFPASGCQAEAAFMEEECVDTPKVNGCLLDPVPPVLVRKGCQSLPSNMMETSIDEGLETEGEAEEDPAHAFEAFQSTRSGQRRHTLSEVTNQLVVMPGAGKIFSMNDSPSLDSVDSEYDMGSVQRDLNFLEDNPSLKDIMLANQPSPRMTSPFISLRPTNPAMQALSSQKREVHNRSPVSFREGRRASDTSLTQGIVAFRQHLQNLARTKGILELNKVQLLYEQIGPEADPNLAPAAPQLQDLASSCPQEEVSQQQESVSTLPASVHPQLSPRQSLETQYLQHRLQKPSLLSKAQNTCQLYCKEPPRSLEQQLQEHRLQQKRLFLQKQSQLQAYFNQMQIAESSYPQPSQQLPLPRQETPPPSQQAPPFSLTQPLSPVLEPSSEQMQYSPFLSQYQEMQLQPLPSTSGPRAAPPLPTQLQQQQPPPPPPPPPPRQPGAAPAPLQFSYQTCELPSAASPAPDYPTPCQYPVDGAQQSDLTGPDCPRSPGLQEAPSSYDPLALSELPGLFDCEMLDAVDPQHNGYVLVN
Sequence of Abl (P00519 whole entry): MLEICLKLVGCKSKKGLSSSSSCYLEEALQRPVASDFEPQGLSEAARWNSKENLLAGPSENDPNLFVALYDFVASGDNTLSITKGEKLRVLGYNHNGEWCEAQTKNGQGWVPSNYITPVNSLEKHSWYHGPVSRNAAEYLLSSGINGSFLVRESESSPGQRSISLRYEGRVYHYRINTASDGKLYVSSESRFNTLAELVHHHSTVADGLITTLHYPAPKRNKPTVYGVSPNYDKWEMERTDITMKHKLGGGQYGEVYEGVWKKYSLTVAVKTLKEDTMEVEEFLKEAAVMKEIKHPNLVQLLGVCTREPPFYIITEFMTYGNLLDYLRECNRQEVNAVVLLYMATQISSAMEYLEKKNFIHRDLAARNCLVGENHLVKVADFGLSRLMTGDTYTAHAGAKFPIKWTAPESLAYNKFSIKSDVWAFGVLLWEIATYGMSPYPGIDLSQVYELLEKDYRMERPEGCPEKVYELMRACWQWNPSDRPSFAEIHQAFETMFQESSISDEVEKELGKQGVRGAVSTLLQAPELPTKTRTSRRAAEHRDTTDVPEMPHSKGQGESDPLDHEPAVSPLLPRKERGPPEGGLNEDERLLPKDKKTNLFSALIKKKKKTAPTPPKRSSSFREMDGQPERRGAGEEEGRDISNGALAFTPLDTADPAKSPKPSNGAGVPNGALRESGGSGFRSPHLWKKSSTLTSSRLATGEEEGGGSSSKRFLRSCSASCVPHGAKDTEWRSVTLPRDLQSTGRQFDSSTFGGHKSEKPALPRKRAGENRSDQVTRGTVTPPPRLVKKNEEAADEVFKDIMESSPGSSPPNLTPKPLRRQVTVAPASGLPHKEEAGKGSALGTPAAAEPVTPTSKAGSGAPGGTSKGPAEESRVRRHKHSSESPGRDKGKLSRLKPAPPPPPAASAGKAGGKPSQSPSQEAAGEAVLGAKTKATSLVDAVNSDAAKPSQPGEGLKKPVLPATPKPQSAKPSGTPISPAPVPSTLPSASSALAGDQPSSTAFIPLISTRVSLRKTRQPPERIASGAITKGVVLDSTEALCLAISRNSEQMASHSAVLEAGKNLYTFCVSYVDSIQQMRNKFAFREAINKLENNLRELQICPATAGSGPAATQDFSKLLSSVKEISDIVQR

Compound	Ki (SIK2) [µM]	Ki (SIK1) [µM]	Ki (SIK3) [µM]	Ki (Abl) [µM]	Ki (Src) [µM]	Ki (EPHA2; 50 or 100 μM ATP, average) [µM]	Ki (EPHA2) [µM]
Cc1cccc(F)c1N1Cc2cnc(N(C)C)cc2N([C@H]2CC[C@@H](N(C)C)CC2)C1=O [Example 41, cis-7-(dimethylamino)-1-[4-(dimethylamino)cyclohexyl]-3-(2-fluoro-6-methyl-phenyl)-4H-pyrido[4,3-d]pyrimidin-2-one]	0.102	0.479	0.565	> 10	> 10	> 10	–
Cc1cccc(F)c1N1Cc2cnc(N)nc2N([C@@H]2CCCN(C)C2)C1=O [Example 42, 7-Amino-3-(2-fluoro-6-methyl-phenyl)-1-[(3R)-1-methyl-3-piperidyl]-4H-pyrimido[4,5-d]pyrimidin-2-one]	0.00152	0.00324	0.014	0.241	0.702	0.0668	–
Cc1cccc(F)c1N1Cc2cnc(N)nc2N([C@H]2CC[C@H](N(C)C)CC2)C1=O [Example 45, trans-7-Amino-1-[4-(dimethylamino)cyclohexyl]-3-(2-fluoro-6-methyl-phenyl)-4H-pyrimido[4,5-d]pyrimidin-2-one]	0.000244	0.000749	0.000992	0.0157	0.0555	0.0342	–
Cc1cccc(F)c1N1Cc2cnc(N)cc2N([C@H]2CC[C@@H](N(C)C)CC2)C1=O [Example 46, cis-7-Amino-1-[4-(dimethylamino)cyclohexyl]-3-(2-fluoro-6-methyl-phenyl)-4H-pyrido[4,3-d]pyrimidin-2-one]	0.000232	0.000384	0.00119	0.043	0.163	0.0844	–
Cc1cccc(F)c1N1Cc2cnc(N)cc2N([C@@H]2CCNC2)C1=O [Example 47, 7-Amino-3-(2-fluoro-6-methyl-phenyl)-1-[(3R)-pyrrolidin-3-yl]-4H-pyrido[4,3-d]pyrimidin-2-one]	0.00133	0.0026	0.0166	> 1	> 1	0.247	–
Cc1cccc(F)c1N1Cc2cnc(N)cc2N([C@@H]2CCCNC2)C1=O [Example 48, 7-amino-3-(2-fluoro-6-methyl-phenyl)-1-[(3R)-3-piperidyl]-4H-pyrido[4,3-d]pyrimidin-2-one]	0.000348	0.00126	0.004	> 1	0.132	–	0.0685
Cc1cccc(F)c1N1Cc2cnc(N)cc2N([C@H]2CCCNC2)C1=O [Example 49, 7-amino-3-(2-fluoro-6-methyl-phenyl)-1-[(3S)-3-piperidyl]-4H-pyrido[4,3-d]pyrimidin-2-one]	0.000473	0.000878	0.00321	> 1	> 1	–	> 1
Cc1cccc(F)c1N1Cc2cnc(N)cc2N([C@@H]2CCCCNC2)C1=O [Example 50, 7-amino-3-(2-fluoro-6-methyl-phenyl)-1-[(3R)-azepan-3-yl]-4H-pyrido[4,3-d]pyrimidin-2-one]	0.000152	0.000193	0.00137	0.00612	0.0242	0.0136	–
Cc1cccc(F)c1N1Cc2cnc(N)cc2N([C@@H]2CCCNCC2)C1=O [Example 51, 7-amino-3-(2-fluoro-6-methyl-phenyl)-1-[(4R)-azepan-4-yl]-4H-pyrido[4,3-d]pyrimidin-2-one]	0.000181	0.000409	0.00082	0.0105	0.0913	0.031	–
Cc1cccc(F)c1N1Cc2cnccc2N([C@H]2CCCCNC2)C1=O [Example 52, 3-(2-fluoro-6-methyl-phenyl)-1-[(3S)-azepan-3-yl]-4H-pyrido[4,3-d]pyrimidin-2-one]	0.0137	0.042	0.288	> 10	> 10	1.52	–
Cc1cccc(F)c1N1Cc2cnc(N)cc2N([C@H]2CCCCNC2)C1=O [Example 53, 7-amino-1-[(3S)-azepan-3-yl]-3-(2-fluoro-6-methyl-phenyl)-4H-pyrido[4,3-d]pyrimidin-2-one]	0.00224	0.00945	0.068	0.517	2.87	0.815	–
Cc1cccc(F)c1N1Cc2cnc(N)cc2N([C@H]2CCCNCC2)C1=O [Example 54, 7-amino-1-[(4S)-azepan-4-yl]-3-(2-fluoro-6-methyl-phenyl)-4H-pyrido[4,3-d]pyrimidin-2-one]	0.000719	0.00208	0.00414	0.0649	0.423	0.213	–
CNC1CCCC(N2C(=O)N(c3c(C)cccc3F)Cc3cnc(N)cc32)C1 (stereo not drawn) [Example 57, 7-amino-3-(2-fluoro-6-methyl-phenyl)-1-[3-(methylamino)cyclohexyl]-4H-pyrido[4,3-d]pyrimidin-2-one]	0.000396	0.0011	0.00305	0.017	0.0615	0.0426	–
Cc1cccc(F)c1N1Cc2cnc(N)cc2N([C@H]2CC[C@H](N)CC2)C1=O [Example 58, trans-7-Amino-1-(4-aminocyclohexyl)-3-(2-fluoro-6-methyl-phenyl)-4H-pyrido[4,3-d]pyrimidin-2-one]	0.000121	0.00045	0.000279	0.0288	0.0189	0.0465	–
Cc1cccc(F)c1N1Cc2cnc(N)cc2N([C@H]2CC[C@H](N(C)C)CC2)C1=O [Example 59, trans-7-Amino-1-[4-(dimethylamino)cyclohexyl]-3-(2-fluoro-6-methyl-phenyl)-4H-pyrido[4,3-d]pyrimidin-2-one]	0.0001	0.000293	0.000143	0.00731	0.0297	0.123	–
CN[C@H]1CC[C@@H](N2C(=O)N(c3c(C)cccc3F)Cc3cnc(N)nc32)CC1 [Example 60, cis-7-Amino-3-(2-fluoro-6-methyl-phenyl)-1-[4-(methylamino)cyclohexyl]-4H-pyrimido[4,5-d]pyrimidin-2-one]	0.000464	0.00138	0.0026	0.018	0.0736	0.0401	–
CN[C@H]1CC[C@H](N2C(=O)N(c3c(C)cccc3F)Cc3cnc(N)nc32)CC1 [Example 61, trans-7-amino-3-(2-fluoro-6-methyl-phenyl)-1-[4-(methylamino)cyclohexyl]-4H-pyrimido[4,5-d]pyrimidin-2-one]	0.000101	0.000171	0.00028	0.0287	0.0364	0.0198	–
Cc1cccc(F)c1N1Cc2cnc(N)cc2N([C@H]2CC[C@@H](N)CC2)C1=O [Example 62, cis-7-Amino-1-(4-aminocyclohexyl)-3-(2-fluoro-6-methyl-phenyl)-4H-pyrido[4,3-d]pyrimidin-2-one]	0.000147	0.000743	0.000944	0.0424	0.0312	0.0281	–
CN[C@H]1CC[C@@H](N2C(=O)N(c3c(C)cccc3F)Cc3cnc(N)cc32)CC1 [Example 63, cis-7-amino-3-(2-fluoro-6-methyl-phenyl)-1-[4-(methylamino)cyclohexyl]-4H-pyrido[4,3-d]pyrimidin-2-one]	0.000676	0.0022	0.00471	0.011	0.0405	0.0576	–
